These results are taken from ChEMBL document CHEMBL4507274 (2021).

A word on the inhibition: it is the change of the read-out against control, counted positive when it falls. Broadly, the IC50 is the concentration needed to halve the response being measured. A high value points to lower potency. As usually defined, the TGI is the concentration giving total growth inhibition. What is called residual activity is the signal under treatment as a percentage of the control signal.

Molecules are shown by their SMILES.

For one assay, the system named is Saccharomyces cerevisiae. As to the kind of experiment: CK1 (y) Upstate kinase activity assay. The conditions noted are these: Compound concentration 10.0 uM.
In assay [1] the target is T1, Serine/threonine-protein kinase Sgk1 (Homo sapiens) (UniProt O00141).
T1 sequence (whole entry): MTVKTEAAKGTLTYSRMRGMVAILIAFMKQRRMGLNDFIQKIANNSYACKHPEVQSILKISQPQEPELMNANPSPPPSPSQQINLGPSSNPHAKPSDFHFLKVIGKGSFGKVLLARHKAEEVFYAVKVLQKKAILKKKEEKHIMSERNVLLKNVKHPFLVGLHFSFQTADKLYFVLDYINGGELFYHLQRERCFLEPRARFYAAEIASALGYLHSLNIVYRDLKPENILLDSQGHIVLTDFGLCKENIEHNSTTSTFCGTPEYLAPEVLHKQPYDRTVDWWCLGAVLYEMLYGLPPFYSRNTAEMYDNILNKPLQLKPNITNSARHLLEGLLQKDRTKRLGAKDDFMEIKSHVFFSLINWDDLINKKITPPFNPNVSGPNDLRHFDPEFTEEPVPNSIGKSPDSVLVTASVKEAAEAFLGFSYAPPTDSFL
Briefly: SGK (h) Upstate kinase activity assay. The note with it: Compound concentration 10.0 uM.

The target in assay [2] is Tyrosine-protein kinase Lyn (Homo sapiens) (UniProt P07948). Briefly: Lyn (h) Upstate kinase activity assay. The conditions noted are these: Compound concentration 10.0 uM.
Assay [3] concerns the target Protein kinase C theta type (Homo sapiens) (UniProt Q04759). As to the kind of experiment: PKCtheta (h) Upstate kinase activity assay. The conditions noted are these: Compound concentration 10.0 uM.
For assay [4], the target named is Rho-associated protein kinase 2 (Rattus norvegicus, UniProt Q62868). As to the kind of experiment: (§1) ROCK-2 (r) Upstate kinase activity assay.
Assay [5] deals with Rho-associated protein kinase 2 (Rattus norvegicus) (UniProt Q62868). Described as §1. The note with it: Compound concentration 10.0 uM.
The target of assay [6] is Glycogen synthase kinase-3 alpha (Homo sapiens) (UniProt P49840). Briefly: GSK3alpha (h) Upstate kinase activity assay. The conditions noted are these: Compound concentration 10.0 uM.
The target of assay [7] is BDNF/NT-3 growth factors receptor (Homo sapiens) (UniProt Q16620). Briefly: TrkB (h) Upstate kinase activity assay. The note with it: Compound concentration 10.0 uM.
Assay [8] addresses Casein kinase I isoform delta (Homo sapiens) (UniProt P48730). As to the kind of experiment: CK1delta (h) Upstate kinase activity assay. The note with it: Compound concentration 10.0 uM.
A further assay has as its system PC-6. Briefly: Lung PC-6 cell line MDS Pharma Services Proliferation Assay. It counts as functional, cell-based, Homo sapiens.
The target in assay [9] is T2, Dual specificity mitogen-activated protein kinase kinase 6 (Homo sapiens) (UniProt P52564).
T2 sequence (whole entry): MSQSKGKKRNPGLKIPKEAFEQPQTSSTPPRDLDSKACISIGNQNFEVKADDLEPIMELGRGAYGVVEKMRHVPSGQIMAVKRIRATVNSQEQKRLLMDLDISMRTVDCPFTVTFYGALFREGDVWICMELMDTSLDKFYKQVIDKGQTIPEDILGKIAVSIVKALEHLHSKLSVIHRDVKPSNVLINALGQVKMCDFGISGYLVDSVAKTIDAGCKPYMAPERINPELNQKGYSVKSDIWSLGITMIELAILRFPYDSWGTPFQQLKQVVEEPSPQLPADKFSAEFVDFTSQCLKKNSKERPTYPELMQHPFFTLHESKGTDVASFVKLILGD
Briefly: MKK6 (h) Upstate kinase activity assay. The conditions noted are these: Compound concentration 10.0 uM.

A further assay concerns HT-29. As to the kind of experiment: Colon HT-29 cell line MDS Pharma Services Proliferation Assay. It counts as functional, cell-based, Homo sapiens.
The target in assay [10] is Platelet-derived growth factor receptor alpha (Homo sapiens) (UniProt P16234). As to the kind of experiment: PDGFRalpha (h) Upstate kinase activity assay. The conditions noted are these: Compound concentration 10.0 uM.
Assay [11] concerns the target Alpha-2C adrenergic receptor (Homo sapiens) (UniProt P18825). The conditions noted are these: Compound concentration 10.0 uM.
For assay [12], the target named is Calcium/calmodulin-dependent protein kinase type II subunit beta (Homo sapiens) (UniProt Q13554). The note with it: Compound concentration 100.0 nM.
The test system of assay [13] is Epidermal growth factor receptor (Homo sapiens), P00533 [G719C]. The conditions noted are these: Compound concentration 100.0 nM.

Sequence of Tyrosine-protein kinase Lyn (Homo sapiens) (P07948 2-512 limits assumed): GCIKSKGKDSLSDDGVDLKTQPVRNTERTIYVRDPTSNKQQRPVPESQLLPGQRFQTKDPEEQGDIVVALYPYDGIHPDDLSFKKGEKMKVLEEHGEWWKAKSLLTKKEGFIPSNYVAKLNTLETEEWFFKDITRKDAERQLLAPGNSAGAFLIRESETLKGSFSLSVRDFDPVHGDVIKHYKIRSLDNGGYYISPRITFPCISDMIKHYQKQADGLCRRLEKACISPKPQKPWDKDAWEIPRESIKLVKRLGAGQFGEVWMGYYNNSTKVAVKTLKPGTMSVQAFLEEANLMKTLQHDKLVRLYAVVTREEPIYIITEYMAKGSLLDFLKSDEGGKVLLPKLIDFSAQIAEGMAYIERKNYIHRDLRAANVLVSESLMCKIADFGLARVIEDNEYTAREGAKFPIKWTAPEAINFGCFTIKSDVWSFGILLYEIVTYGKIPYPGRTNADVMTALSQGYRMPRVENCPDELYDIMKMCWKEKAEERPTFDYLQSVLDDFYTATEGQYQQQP
Sequence of Alpha-2C adrenergic receptor (Homo sapiens) (P18825 whole entry): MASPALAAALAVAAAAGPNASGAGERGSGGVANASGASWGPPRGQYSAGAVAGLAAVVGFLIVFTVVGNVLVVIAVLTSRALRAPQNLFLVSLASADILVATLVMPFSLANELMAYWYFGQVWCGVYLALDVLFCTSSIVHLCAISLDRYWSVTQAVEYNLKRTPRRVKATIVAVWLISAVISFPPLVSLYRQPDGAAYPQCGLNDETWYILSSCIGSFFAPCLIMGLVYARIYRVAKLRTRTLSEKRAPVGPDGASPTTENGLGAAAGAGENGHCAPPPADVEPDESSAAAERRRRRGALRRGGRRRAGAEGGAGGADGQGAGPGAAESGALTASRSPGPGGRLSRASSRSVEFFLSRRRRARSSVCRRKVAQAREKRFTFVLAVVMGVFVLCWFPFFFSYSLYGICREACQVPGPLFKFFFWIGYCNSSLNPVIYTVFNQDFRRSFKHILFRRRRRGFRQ
Sequence of Calcium/calmodulin-dependent protein kinase type II subunit beta (Homo sapiens) (Q13554 whole entry): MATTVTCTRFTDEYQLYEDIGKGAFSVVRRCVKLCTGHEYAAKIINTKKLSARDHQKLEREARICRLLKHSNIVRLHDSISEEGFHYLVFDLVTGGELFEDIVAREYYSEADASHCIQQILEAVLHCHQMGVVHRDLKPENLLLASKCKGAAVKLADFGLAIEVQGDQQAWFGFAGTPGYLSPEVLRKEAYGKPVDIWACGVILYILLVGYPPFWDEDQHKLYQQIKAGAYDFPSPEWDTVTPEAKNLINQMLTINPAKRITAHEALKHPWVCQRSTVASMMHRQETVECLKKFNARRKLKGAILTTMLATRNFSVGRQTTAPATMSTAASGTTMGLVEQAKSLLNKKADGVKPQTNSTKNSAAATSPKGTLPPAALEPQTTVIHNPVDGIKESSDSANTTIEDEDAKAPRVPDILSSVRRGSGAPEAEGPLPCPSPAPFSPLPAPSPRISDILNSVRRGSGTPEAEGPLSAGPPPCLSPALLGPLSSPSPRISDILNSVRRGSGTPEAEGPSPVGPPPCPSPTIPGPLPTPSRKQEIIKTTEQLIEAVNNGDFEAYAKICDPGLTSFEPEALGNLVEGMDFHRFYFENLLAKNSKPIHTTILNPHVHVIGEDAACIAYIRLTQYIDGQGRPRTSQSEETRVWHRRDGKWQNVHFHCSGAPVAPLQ
Sequence of Platelet-derived growth factor receptor alpha (Homo sapiens) (P16234 whole entry): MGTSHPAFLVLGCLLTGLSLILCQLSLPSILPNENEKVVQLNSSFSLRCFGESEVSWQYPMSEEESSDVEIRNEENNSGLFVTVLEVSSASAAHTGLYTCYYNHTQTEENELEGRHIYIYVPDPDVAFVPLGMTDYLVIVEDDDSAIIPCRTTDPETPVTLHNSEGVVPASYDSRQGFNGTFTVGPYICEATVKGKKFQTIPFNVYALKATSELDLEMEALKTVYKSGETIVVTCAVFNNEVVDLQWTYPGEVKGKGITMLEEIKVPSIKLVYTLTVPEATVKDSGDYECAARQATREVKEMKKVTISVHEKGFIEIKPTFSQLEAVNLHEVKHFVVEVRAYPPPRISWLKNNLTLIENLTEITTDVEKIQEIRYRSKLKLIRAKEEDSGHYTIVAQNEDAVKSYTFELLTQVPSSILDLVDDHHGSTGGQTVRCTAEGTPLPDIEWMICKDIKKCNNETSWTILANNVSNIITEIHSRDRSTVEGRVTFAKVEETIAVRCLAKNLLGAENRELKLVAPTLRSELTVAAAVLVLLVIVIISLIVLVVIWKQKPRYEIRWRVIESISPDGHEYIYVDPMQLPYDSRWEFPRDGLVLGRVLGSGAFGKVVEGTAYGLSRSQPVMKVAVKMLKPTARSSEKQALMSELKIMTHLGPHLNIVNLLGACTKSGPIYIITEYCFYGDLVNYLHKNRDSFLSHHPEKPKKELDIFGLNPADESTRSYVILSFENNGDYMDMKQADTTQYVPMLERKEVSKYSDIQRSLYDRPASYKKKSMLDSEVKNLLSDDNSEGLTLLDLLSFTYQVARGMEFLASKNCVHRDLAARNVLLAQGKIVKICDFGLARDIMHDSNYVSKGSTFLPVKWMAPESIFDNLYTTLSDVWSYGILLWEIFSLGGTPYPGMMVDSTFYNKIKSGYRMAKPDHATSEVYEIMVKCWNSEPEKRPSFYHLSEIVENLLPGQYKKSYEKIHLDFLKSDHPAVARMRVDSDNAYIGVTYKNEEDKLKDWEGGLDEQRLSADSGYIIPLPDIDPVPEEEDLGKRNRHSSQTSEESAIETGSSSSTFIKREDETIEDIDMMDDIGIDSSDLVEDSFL
Sequence of Rho-associated protein kinase 2 (Q62868 whole entry): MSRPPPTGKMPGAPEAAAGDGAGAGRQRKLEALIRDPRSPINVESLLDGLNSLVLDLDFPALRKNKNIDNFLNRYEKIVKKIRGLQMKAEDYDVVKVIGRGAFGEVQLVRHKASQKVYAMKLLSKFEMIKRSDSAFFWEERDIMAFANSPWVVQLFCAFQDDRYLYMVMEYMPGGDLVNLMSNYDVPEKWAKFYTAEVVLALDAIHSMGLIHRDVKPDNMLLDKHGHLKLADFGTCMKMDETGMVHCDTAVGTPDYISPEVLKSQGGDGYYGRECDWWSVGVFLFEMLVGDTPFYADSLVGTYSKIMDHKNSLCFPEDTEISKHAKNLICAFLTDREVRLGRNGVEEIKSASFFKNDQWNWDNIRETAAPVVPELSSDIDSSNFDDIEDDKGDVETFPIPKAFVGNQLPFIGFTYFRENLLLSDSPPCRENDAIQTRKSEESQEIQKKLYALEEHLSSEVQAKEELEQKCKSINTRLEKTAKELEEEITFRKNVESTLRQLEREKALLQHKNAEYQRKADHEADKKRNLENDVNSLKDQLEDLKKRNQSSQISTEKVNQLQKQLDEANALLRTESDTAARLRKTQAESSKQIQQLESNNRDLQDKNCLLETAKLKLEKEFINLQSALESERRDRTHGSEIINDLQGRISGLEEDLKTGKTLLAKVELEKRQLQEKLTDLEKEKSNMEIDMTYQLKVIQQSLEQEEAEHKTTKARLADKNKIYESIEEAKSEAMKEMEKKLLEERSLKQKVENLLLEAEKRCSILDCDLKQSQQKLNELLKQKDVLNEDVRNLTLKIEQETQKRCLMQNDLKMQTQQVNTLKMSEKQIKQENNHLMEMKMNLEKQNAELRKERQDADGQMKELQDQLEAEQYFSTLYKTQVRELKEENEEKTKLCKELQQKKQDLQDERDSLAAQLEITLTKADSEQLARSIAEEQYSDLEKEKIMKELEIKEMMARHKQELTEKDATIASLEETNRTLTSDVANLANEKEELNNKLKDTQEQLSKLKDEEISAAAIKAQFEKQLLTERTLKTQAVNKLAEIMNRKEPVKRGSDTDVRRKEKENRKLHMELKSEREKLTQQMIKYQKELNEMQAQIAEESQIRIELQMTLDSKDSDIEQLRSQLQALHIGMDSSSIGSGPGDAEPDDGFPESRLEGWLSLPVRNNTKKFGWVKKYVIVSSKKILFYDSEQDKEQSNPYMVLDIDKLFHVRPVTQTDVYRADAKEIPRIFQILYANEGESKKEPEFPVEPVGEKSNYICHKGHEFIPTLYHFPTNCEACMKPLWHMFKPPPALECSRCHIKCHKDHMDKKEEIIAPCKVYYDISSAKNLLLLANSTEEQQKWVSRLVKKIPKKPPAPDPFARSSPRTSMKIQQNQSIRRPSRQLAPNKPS
Sequence of Rho-associated protein kinase 2 (Rattus norvegicus) (Q62868 whole entry, looked up): as the sequence (Q62868 whole entry) above
Sequence of Casein kinase I isoform delta (Homo sapiens) (P48730 whole entry, looked up, canonical isoform): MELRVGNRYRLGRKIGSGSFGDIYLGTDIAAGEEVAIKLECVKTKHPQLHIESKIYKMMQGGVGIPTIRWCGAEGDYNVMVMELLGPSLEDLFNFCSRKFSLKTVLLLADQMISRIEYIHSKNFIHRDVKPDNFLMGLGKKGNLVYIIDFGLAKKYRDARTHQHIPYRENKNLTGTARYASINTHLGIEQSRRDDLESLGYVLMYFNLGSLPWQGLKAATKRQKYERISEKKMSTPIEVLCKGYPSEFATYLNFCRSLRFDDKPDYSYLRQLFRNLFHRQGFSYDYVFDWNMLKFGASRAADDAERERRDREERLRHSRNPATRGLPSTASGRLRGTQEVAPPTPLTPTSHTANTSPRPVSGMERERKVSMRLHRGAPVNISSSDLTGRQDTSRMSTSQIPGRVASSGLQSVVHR
Sequence of Glycogen synthase kinase-3 alpha (Homo sapiens) (P49840 2-483 limits assumed): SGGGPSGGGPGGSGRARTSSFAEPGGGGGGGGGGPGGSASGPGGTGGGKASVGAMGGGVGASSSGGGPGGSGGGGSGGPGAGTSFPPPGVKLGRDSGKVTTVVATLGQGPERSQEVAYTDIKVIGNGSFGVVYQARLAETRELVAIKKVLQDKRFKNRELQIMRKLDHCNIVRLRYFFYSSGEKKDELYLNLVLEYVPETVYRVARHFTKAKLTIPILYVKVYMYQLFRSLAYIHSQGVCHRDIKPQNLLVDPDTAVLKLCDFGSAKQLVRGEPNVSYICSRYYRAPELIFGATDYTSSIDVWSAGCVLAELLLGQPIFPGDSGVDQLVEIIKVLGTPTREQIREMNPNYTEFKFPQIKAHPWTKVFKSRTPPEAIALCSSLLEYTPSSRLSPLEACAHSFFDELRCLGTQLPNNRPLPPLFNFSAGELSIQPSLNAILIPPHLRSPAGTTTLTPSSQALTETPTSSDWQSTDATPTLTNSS

On to `Cc1c[nH]c2nccc(Oc3c(F)cc(Nc4cc(Cl)nc(N)n4)cc3F)c12` [BAY-549], for which the inhibition with Saccharomyces cerevisiae is 44%; in [1], 76%; in assay [2] it was 31%; in assay [3], 42%; in assay [5] it was 102%; in assay [6], 13%. The inhibition is 84% in assay [7], 65% in assay [8], 6% in assay [9] and 3% in assay [10]. Moreover, the IC50 was under 0.001 µM in assay [4]; 4.2 µM in the assay with PC-6 (Homo sapiens, PC-6); 2.9 µM with HT-29 (Homo sapiens, HT-29). Also, the TGI turned out to be 18 µM in the assay with PC-6 (Homo sapiens, PC-6) and 19 µM with HT-29 (Homo sapiens, HT-29). In addition, the CC50 with PC-6 (Homo sapiens, PC-6, read-out: LC50 (the source's name)) was 76 µM; in the assay with HT-29 (Homo sapiens, HT-29, read-out: LC50 (the source's name)) it was over 100 µM. Besides, the entries for the “Mean % growth (n = 2) for 0.1 µM probe concentration” value in the assay with PC-6 (± SEM 5 % growth) and in the assay with HT-29 (± SEM 1 % growth) were 84% and 95%, respectively. For the same compound, the “Mean % growth (n = 2) for 100.0 µM probe concentration” value was -65% in the assay with PC-6 (± SEM 6 % growth) and -38% with HT-29 (± SEM 9 % growth). Besides, the “Mean % growth (n = 2) for 10.0 µM probe concentration” value came to 32% in the assay with PC-6 (± SEM 7 % growth) and 10% in the assay on HT-29 (± SEM 4 % growth). The “Mean % growth (n = 2) for 0.01 µM probe concentration” value with PC-6 (± SEM 9 % growth) came to 105%; in the assay with HT-29 (± SEM 8 % growth), 100%. The “Mean % growth (n = 2) for 1.0 µM probe concentration” value with PC-6 (± SEM 9 % growth) is reported as 70%; in the assay on HT-29 (± SEM 1 % growth), 75%.
Take `Cn1cc(Cl)c2c(Oc3c(F)cc(Nc4cc(Cl)nc(N)n4)cc3F)ccnc21` [BAY-4900]: the inhibition in assay [11] was -6.8%. Moreover, the results for the residual activity in assay [12] and in assay [13] were 100% and 95%, respectively.
